Reference: BindingDB's records for patent US11787780 (Corcept Therapeutics, 2023)

These compounds were tested against T1, Glucocorticoid receptor (Homo sapiens, UniProt P04150) (assay: GR Binding Assay).
T1 sequence (P04150 whole entry): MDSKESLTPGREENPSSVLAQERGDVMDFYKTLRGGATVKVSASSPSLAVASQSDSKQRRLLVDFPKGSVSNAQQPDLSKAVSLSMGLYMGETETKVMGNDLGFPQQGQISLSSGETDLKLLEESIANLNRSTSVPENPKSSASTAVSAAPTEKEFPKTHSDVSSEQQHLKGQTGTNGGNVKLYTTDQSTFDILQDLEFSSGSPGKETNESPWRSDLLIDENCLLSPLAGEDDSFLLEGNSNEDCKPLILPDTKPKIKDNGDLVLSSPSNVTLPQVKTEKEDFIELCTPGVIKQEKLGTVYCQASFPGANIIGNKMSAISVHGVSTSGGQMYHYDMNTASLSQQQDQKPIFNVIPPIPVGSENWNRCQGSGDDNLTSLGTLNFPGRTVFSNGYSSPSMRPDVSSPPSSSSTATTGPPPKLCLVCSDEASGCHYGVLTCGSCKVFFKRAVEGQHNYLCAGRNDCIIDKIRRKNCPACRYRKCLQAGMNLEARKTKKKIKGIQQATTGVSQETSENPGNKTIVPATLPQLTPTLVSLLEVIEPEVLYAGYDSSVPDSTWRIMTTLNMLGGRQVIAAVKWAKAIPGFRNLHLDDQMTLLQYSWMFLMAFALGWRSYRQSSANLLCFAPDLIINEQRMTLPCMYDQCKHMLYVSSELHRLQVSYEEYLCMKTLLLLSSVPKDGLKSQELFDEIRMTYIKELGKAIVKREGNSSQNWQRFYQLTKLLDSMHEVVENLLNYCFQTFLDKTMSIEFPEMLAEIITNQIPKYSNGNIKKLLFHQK
Experimental: Binding of test compounds to the glucocorticoid receptor (GR) is determined using a fluorescence polarisation (FP) assay utilising a recombinant ligand binding domain (LBD) of GR. The test compounds are assessed by their ability to displace a fluorescently tagged ligand and detection of the resulting decrease in fluorescence polarisation.

IC50 [nM]	SMILES
13	CCCn1cc(S(=O)(=O)N2CCC(Cc3ccccn3)(c3cc4cnn(-c5ccc(F)cc5)c4cc3C)C2)cn1 (stereo not drawn) [US11787780, Example 152]
12	Cc1cc2c(cnn2-c2ccc(=O)n(C)c2)cc1C1(Cc2ccccc2)CCN(S(=O)(=O)c2cnn(C(C)C)n2)C1 (stereo not drawn) [US11787780, Example 320]
180	Cc1cc2c(cnn2-c2ccc(F)cc2)cc1C1(Cc2ccccc2)CC(O)N(Cc2ccccc2)C1=O (stereo not drawn) [US11787780, Example 336]
